Laboratory results reported in EP2246037A2, “Anti-aging and whitening properties of quercetin, 18a-glycyrrhetinic acid, hederagenin and its derivatives” (Korres S.A. Natural Products, priority 2009, dated 2010).

Assays:
[1] = tested on: Mouse melanocytes (B10F16 cell line); assay: Cellular whitening of melanocytes (cell pellet photographs); format: cell-based; details: 72 h
Method: The steps, methods and results that were obtained regarding the whitening properties of the examined substances are the following: • A) Cellular whitening of melanocytes. • A.1. Mouse melanocytes (B10F16 cell line) were used in in vitro conditions (growth at 37°C, 5% CO2 and 95% humidity). • A.2. The cells were maintained in Dulbecco's modified Eagle's medium (DMEM®; Invitrogen Life Technologies Inc.) supplemented with 10% (v/v) fetal calf serum, 100 Units/ml penicillin, 100 µg/ml strepromycin, 2 mM glutamine and 1% (v/v) non-essential amino acids (complete medium). • A.3. 10^5 cells were seeded in petri dishes and the following day they were fed with medium supplemented with the substances [final concentration for all substances: 5 µg/ml and 10 µg/ml]. Quercetin (QUER), 18α-glycyrrhetinic acid (18α GA) and hederagenin (HED) were diluted in DMSO whereas quercetin caprylate was diluted in caprilic/capric triglycerides (CAP). Therefore, the control cultures were incubated in medium supplemented with 0.1% DMSO or 0.1% CAP. The media were replenished every 24 h and the cells were kept under these conditions constantly for 72 h. Cells were then collected and pelleted and the cell pellet was photographed. • A.4. […] The result was positively correlated to the concentration of quercetin used. • B) Detection of tyrosinase expression. • B.1. Mouse melanocytes were cultured as described in A.1.-A.3. After 72 h of treatment, the cells were collected, lysed and proteins were extracted and subjected to SDS-PAGE followed by immunoblot analysis against tyrosinase. Protein concentrations were determined using the Bradford method with BSA as a standard. • B.2.
Photographs of pellet of melanocytes that were treated with the substances for 72 h.

HFL-1 HDFs = assay: Cell survival with or without oxidative stress; format: cell-based, human; details: for higher survival rate as compared to control cultures: 300 µM H2O2 for 2.5 h, then additional 24 h in culture; for survival to an oxidative stress challenge: summary, versus control cells
[2] = tested on: HFL-1 human diploid fibroblasts; assay: Lifespan (cumulative population doublings) and morphology of fibroblasts under continuous treatment; format: cell-based; design: key to cpd: cumulative population doublings: CPD=Σ LOG[Nfinal/Ninitial]/LOG[2]; details: for appearance of the senescent phenotype: summary of sections 1 and 2
Method: The steps, methods and results that were obtained regarding the anti-aging properties of the examined substances are the following: • 1) Study of the lifespan of human diploid fibroblasts in vitro in the presence of the substances. • 1.1. HFL-1 human diploid fibroblasts (HDFs) were used in in vitro conditions (growth at 37°C, 5% CO2 and 95% humidity). • 1.2. The cells were maintained in Dulbecco's modified Eagle's medium (DMEM ®; Invitrogen Life Technologies Inc.) supplemented with 10% (v/v) fetal calf serum, 100 Units/ml penicillin, 100 µg/ml strepromycin, 2 mM glutamine and 1% (v/v) non-essential amino acids (complete medium). • 1.3. The cells were constantly cultured in culture medium supplemented with the substances [final concentration for quercetin (QUER), 18α-glycyrrhetinic acid (18α GA), and hederagenin (HED): 2 µg/ml and for quercetin caprylate (QU-CAP) three concentrations were applied: 0.5, 2 and 5 µg/ml]. Quercetin, 18α-glycyrrhetinic acid and hederagenin were diluted in DMSO (dimethyl sulfoxide) whereas quercetin caprylate was diluted in caprilic/capric triglycerides (CAP). Therefore, the control cultures were incubated in medium supplemented with 0.1% DMSO or 0.1% CAP. • 1.4. The cells were replenished with fresh media supplemented with the substances or the diluents every 24 h and their numbers were examined using a Coulter Z2 ® counter (Coulter Corporation) until they reached senescence (approximately after 13 weeks). The cumulative population doublings performed by each culture were calculated using the following formula: CPD=Σ[PD] where PD=LOG[Nfinal/Ninitial]/LOG[2], where N final represents the number of cells that were measured when each culture reached confluence and N initial represents the number of cells that was initially seeded. • 1.5. Photographs of the cells maintained in cell culture and treated with the various substances for the same time period were taken. • 1.6. […] More specifically, cells that were incubated with quercetin caprylate gave up to 2.8% more population doublings as compared to the population doublings performed by the relative control cultures. Cells that were incubated with the other substances gave up to 2.9% more population doublings as compared to their relative control cultures. • 1.7. […] Cells that were treated with either of the tested substances maintained the young morphology for longer as compared to the control cultures (DMSO-treated and CAP-treated). […] HFL-1 HDFs were cultured as described in 1.1-1.4 for 10 consecutive weeks and were then subjected to β-galactosidase activity staining. • 1.2. Briefly, 10^5 cells from each culture were seeded in 6-well plates. After 24 h cells were washed with PBS (phosphate buffered saline), fixed in 0.2% glutaraldehyde and 2% formaldehyde for 5 min, washed again with PBS, and finally stained for 24 h at 37 °C in the absence of CO2, in staining solution (150 mM NaCl, 2 mM MgCl2, 5 mM K3Fe(CN)6, 40 mM citric acid, and 12 mM sodium phosphate, pH 6.0) containing 1 mg/ml 5-bromo-4-chloro-3-indolyl-β-D-galactoside. Photographs were then taken. • 1.3. […] HFL-1 HDFs that have senesced in vitro were used (growth at 37°C, 5% CO2 and 95% humidity). More specifically, middle aged HFL-1 HDFs (cpd 59) and terminally senescent HFL-1 HDFs (cpd 65) that had senesced in the absence of any substance were used. • 3.2. The cells were seeded and maintained in complete medium (see 1.2). Culture medium supplemented with the substances [final concentration for quercetin (QUER), 18α-glycyrrhetinic acid (18α GA), and hederagenin (HED): 2 µg/ml and for quercetin caprylate (QU-CAP) three concentrations were applied: 0.5, 2 and 5 µg/ml] or the diluents (0.1% DMSO or 0.1% CAP) were added 24 h later. The cells were replenished with fresh media supplemented with the substances or the diluents every 24 h for 1 week and their numbers were then examined using a Coulter Z2 ® counter (Coulter Corporation). • 3.3. […]

[3] = tested on: proteasome subunits (β5, α7); assay: Immunoblot of proteasome subunit levels in treated cells; format: cell-based, human; details: 24 h treatment
[4] = HFL-1 cells, 2 µg/ml, 13 consecutive weeks
[5] = Table 2, 2 µg/ml, 55 days in culture
[6] = HFL-1 cells, 0, 5 µg/ml, 13 consecutive weeks
[7] = HFL-1 cells, 5 µg/ml, 13 consecutive weeks

## O=c1c(O)c(-c2ccc(O)c(O)c2)oc2cc(O)cc(O)c12 [Quercetin]
[1]; 5 µg/ml and 10 µg/ml
  whitening effect compared to the other substances: notably more intensed
[1]; both concentrations (5 µg/ml and 10 µg/ml)
  whitening of melanocyte pellet: whitening potential
HFL-1 HDFs
  higher survival rate as compared to control cultures: ≤ 14.5%
  survival to an oxidative stress challenge: survived better
[2]; [4]
  cpd: 57.24
[2]; [5]
  cpd: 54.39
[2]
  appearance of the senescent phenotype: delay in the appearance of the senescent phenotype
[3]
  protein levels of proteasome subunits (β5, α7): elevated protein levels

## CC1(C)[C@@H](O)CC[C@]2(C)[C@H]3C(=O)C=C4[C@H]5C[C@@](C)(C(=O)O)CC[C@]5(C)CC[C@@]4(C)[C@]3(C)CC[C@@H]12 [18α-glycyrrhetinic acid]
[1]; lower concentration (5 µg/ml)
  whitening of melanocyte pellet: whitening potential
HFL-1 HDFs
  higher survival rate as compared to control cultures: 2%
  survival to an oxidative stress challenge: survived better
HFL-1 HDFs; 24 h treatment, no oxidative stress
  higher survival rate as compared to diluent-treated cells: 3.5%
[2]; [4]
  cpd: 67
  cpd, change versus relative diluent control: +2.9%
[2]; [5]
  cpd: 65.02
[2]
  appearance of the senescent phenotype: delay in the appearance of the senescent phenotype
[3]
  protein levels of proteasome subunits (β5, α7): similar

## quercetin caprylate
HFL-1 HDFs
  higher survival rate as compared to control cultures: ≤ 14.5%
  survival to an oxidative stress challenge: survived better
[2]; [6]
  cpd: 65.9
  cpd, change versus relative diluent control: +2.6%
[2]; [4]
  cpd: 66.0
  cpd, change versus relative diluent control: +2.8%
[2]; [7]
  cpd: 65.4
  cpd, change versus relative diluent control: +1.9%
[2]; Table 2, 0,5 µg/ml, 55 days in culture
  cpd: 65.09
[2]; [5]
  cpd: 64.87
[2]; Table 2, 5 µg/ml, 55 days in culture
  cpd: 63.96
[2]; summary of Table 1, quercetin caprylate 0.5, 2 and 5 µg/ml, other substances 2 µg/ml
  more population doublings as compared to the relative control cultures: up to 2.8%
[2]
  appearance of the senescent phenotype: delay in the appearance of the senescent phenotype
[3]
  protein levels of proteasome subunits (β5, α7): elevated protein levels

## CC1(C)CC[C@]2(C(=O)O)CC[C@]3(C)C(=CC[C@@H]4[C@@]5(C)CC[C@H](O)[C@@](C)(CO)[C@@H]5CC[C@]43C)[C@@H]2C1 [Hederagenin]
[1]; lower concentration (5 µg/ml)
  whitening of melanocyte pellet: whitening potential
[2]; [4]
  cpd: 65.4
  cpd, change versus relative diluent control: +0.5%
[2]; [5]
  cpd: 65.06
[3]
  protein levels of proteasome subunits (β5, α7): did not detect any up-regulation
